Data as given in PMC8463110 (Bioorganic & medicinal chemistry, 2013).

Columns and labels:
mice = conditions: ref unpublished finding, R.R. Matsumoto, Morgantown, WV; cited from earlier work
[1] = system: behavioral and neurotoxic effects of cocaine in mice; conditions: cited from earlier work
human μ opioid receptor = human μ opioid receptor (Homo sapiens, UniProt P35372); experiment: Opioid receptor binding, [3H]DAMGO displacement, CHO cell membranes; conditions: 1.3 nM [3H]DAMGO, 120 min 25 °C
[2] = system: cocaine-induced convulsions in Swiss Webster mice; experiment: Cocaine-induced convulsions; assay type: in vivo; conditions: 30 mg/kg ip (highest dose tested), 15 min before cocaine 70 mg/kg ip, p < 0.05 Fisher's exact test

human μ opioid receptor, sequence (P35372 whole entry): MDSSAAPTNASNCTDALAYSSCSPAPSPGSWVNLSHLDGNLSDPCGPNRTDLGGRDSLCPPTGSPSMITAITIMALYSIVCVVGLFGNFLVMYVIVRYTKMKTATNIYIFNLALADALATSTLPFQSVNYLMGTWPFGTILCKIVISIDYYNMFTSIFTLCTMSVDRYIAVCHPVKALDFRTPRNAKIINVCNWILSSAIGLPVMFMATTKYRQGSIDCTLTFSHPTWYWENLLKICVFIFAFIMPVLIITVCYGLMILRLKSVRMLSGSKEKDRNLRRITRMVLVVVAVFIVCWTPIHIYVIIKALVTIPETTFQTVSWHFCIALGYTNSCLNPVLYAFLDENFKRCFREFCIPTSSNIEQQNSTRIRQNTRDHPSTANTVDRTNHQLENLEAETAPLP

Row | SMILES | Therapeutic window / deaths at supratherapeutic doses (mice) | Effect on behavioral and neurotoxic effects of cocaine [1] | Opioid binding Ki ± SEM, μ (human μ opioid receptor) | Attenuation of cocaine-induced convulsions [2]
1 | c1ccc(CCN2CCCCC2)cc1 [AC927, N-phenethylpiperidine] | relatively narrow therapeutic window, which can result in deaths in mice at supratherapeutic doses | attenuated the behavioral and neurotoxic effects of cocaine in mice |  | 
2 | CN(CCc1ccccc1)[C@H]1CCCC[C@@H]1O (relative stereo) [Compound 6, trans-2-(Methyl(phenethyl)amino)cyclohexanol] |  |  | no affinity | significant attenuation of cocaine-induced convulsions
